# Data from patent US20150276760A1, “Method for Screening a Compound Capable of Inhibiting the Notch1 Transcriptional Activity” (INSERM (institut National de la Sante et de la Recherche …, priority 2012, published 2015).
# Key:
# [1] = tested on: ICN1-induced activation of p6XCBS-luc; assay: Notch-responsive reporter assay (p6XCBS-luc) in HeLa cells; type: cell-based
# Protocol: HeLa cells were co-transfected with 1 μg of a Notch-responsive firefly luciferase reporter containing 6 CSL-binding sites (p6XCBS-luc), 100 ng of TK-Renilla-luciferase vector (transfection control) and various amount (0.1-0.3-1 μg) of the MigR1-ICN1 expression vector. Transfections were performed in 6-wells plates using JetPEI reagent (Polyplus) according to manufacturer's instruction. Firefly luciferase activity was measured 24 hours post-transfection and normalized to Renilla luciferase expression. The values in the figures are Relative Luciferase Units (RLU) represented as fold induction over the luciferase activity measured in the absence of ICN1 (cells transfected with p6XCBS-luc and an empty vector).
# [2] = tested on: HES1, HEY1 and DTX1 expression in U937 cells; assay: Notch-target gene expression in U937 cells without Notch activation (Q-RT-PCR); details: TCP 1 mM, S2101 30 μM
# [3] = tested on: Notch-induced HES1 transcription in U937 cells; assay: Ligand (Delta-like 4)-mediated HES1 activation in U937 cells; details: recombinant DL-4 Notch ligand
# [4] = tested on: Notch-target genes in pre-T cells; assay: ChIP in T-cell precursors from in vitro T-cell differentiation; type: cell-based, human; details: GSI 5 μM, 2 days
# Protocol: For ChIP experiments, 6×10^7 cells were cross-linked for 10 min with 1% formaldehyde (sigma) at room temperature. The cross-linking reaction was stopped by adding glycine to a final concentration of 0.125 M for 10 min at room temperature. Cells were washed twice with cold PBS and incubated on ice for 7 min in 2 mL of buffer containing 15 mM Tris-HCl (pH 7.4), 0.3 M sucrose (sigma), 60 mM KCl, 15 mM NaCl, 5 mM MgCl2, 0.1 mM EGTA and 0.1% NP-40. Each cell suspension was then layered over 8 mL sucrose cushion (15 mM Tris-HCl, 1.2 M sucrose, 60 mM KCl, 15 mM NaCl, 5 mM MgCl2 and 0.1 mM EGTA) and centrifuged at 10.000 g for 20 min at 4° C. Nuclear pellet was lysed with 1 mL lysis buffer (50 mM Tris-HCl pH 8, 10 mM EDTA, 1% SDS) complemented with Protease Inhibitor Cocktail (Roche). […] DNA was extracted by phenol-chloroform, quantified using nanodrop and run on a 1% agarose gel to confirm DNA fragment size. […]
# CD34+ cells from human umbilical cord blood samples were sorted (Stemcell technologies) (≧95% purity) and cultured on OP9-DL1 stromal cells in αMEM media containing FLT3L (5 ng/ml), and IL7 (5 ng/ml) for 16 days. At day 16, most progenitors (˜90%) were engaged to the T-cell lineage (pre-T cells) as determined by the expression of CD5 and CD1a. pre-T-cells were cultured for 2 additional days on OP9-DL1 cells in presence or absence of GSI (5 μM).
# [5] = tested on: ICN1-binding sites of Notch-target genes; assay: Chromatin immunoprecipitation (ChIP) in SupT1 cells; type: cell-based, human
# Protocol: For ChIP experiments, 6×10^7 cells were cross-linked for 10 min with 1% formaldehyde (sigma) at room temperature. The cross-linking reaction was stopped by adding glycine to a final concentration of 0.125 M for 10 min at room temperature. Cells were washed twice with cold PBS and incubated on ice for 7 min in 2 mL of buffer containing 15 mM Tris-HCl (pH 7.4), 0.3 M sucrose (sigma), 60 mM KCl, 15 mM NaCl, 5 mM MgCl2, 0.1 mM EGTA and 0.1% NP-40. Each cell suspension was then layered over 8 mL sucrose cushion (15 mM Tris-HCl, 1.2 M sucrose, 60 mM KCl, 15 mM NaCl, 5 mM MgCl2 and 0.1 mM EGTA) and centrifuged at 10.000 g for 20 min at 4° C. Nuclear pellet was lysed with 1 mL lysis buffer (50 mM Tris-HCl pH 8, 10 mM EDTA, 1% SDS) complemented with Protease Inhibitor Cocktail (Roche). Chromatin was sonicated to generate DNA-fragments of approximately 300 to 500 bp in an ultra sonicator water bath (Bioruptor, Diagenode) using ten cycles of 30 s/on and 30 s/off. After centrifugation at 13.000 g for 20 min, an aliquot of sonicated DNA was reverse-crosslinked by addition of 250 mM NaCl and incubation at 65° C. for 6 h. DNA was extracted by phenol-chloroform, quantified using nanodrop and run on a 1% agarose gel to confirm DNA fragment size. The antibodies were pre-bound to Invitogen Dynal magnetic beads (Protein A or G beads) in PBS containing BSA (5 mg/mL) and chromatin was pre-cleared with beads for 4 h at 4° C. Immunoprecipitation was performed using 20 μg of chromatin and 2-3 μg of antibody coupled to 15 μL of beads in ChIP buffer (20 mM Tri-HCl pH 8, 150 mM NaCl, 2 mM EDTA, and 1% Triton X-100) complemented with Protease Inhibitor Cocktail. After overnight incubation at 4° C., beads were washed 4 times with wash buffer 1 (20 mM Tri-HCl pH 8, 150 mM NaCl, 2 mM EDTA, 1% Triton X-100 and 0.1% SDS) and 4 times with wash buffer 2 (20 mM Tri-HCl pH 8, 500 mM NaCl, 2 mM EDTA, 1% Triton X-100 and 0.1% SDS) using the DynaMag-2 magnet (Invitogen). Elution of immunoprecipitated DNA was performed in buffer containing 1% SDS and 100 mM NaHCO3. Crosslinking was reversed by incubation at 65° C. and proteins were degraded by addition of proteinase K (Sigma). Eluted DNA and 10% of input DNA were purified using phenol-chloroform extraction followed by isopropanol precipitation or using QIAquick PCR purification (Qiagen), according to the manufacturer instructions. Resultant DNA was dissolved in 60 μL of water containing 10 mM Tris-HCl pH 8. […] PCR measurements were performed in duplicate.
# [6] = tested on: Notch-activation complex (ICN1-CSL-MAML1); assay: Immunopurification / coimmunoprecipitation from SupT1 nuclear extracts (western blot); set-up: species or system human
# Protocol: After two step affinity chromatography, protein complexes containing both tagged-proteins were peptide eluted and analyzed by western blot. For endogenous protein immunoprecipitations, nuclear extracts (500 μg-1 mg) were incubated with antibodies (1-2 μg) for 4 hr, followed by addition of 10 μL protein G Sepharose beads (Fast flow, Sigma) for 45 min before washing five times with 800 μL of buffer B015 in spin columns (Pierce).
# Cells were lysed in lysis buffer (50 mM Tris-HCl, 120 mM NaCl, 5 mM EDTA, 0.5% NP-40 and PMSF) and briefly sonicated. Cell lysates and immunoprecipitates were boiled in SDS sample buffer and resolved on a 7% SDS-PAGE gel (Biorad). Proteins were liquid-transferred (Biorad) to nitrocellulose membrane in transfer buffer (20% methanol, 25 mM Tris, 192 mM Glycine, 0.037% SDS) during 90 min at 100V.
# [7] = tested on: Notch-responsive genes in SupT1 cells; assay: Notch-responsive gene expression in GSI-treated SupT1 cells
# monoamine oxidases = details: compared with TCP; cited from earlier work
# [8] = tested on: Notch-target genes in T-ALL cells; assay: Notch-target gene expression in T-ALL cell lines (Q-RT-PCR)
# SupT1 xenograft tumor = assay: Subcutaneous xenograft tumor model; type: in vivo; details: SupT1 cells expressing shRNA, SCID mice
# Protocol: Female SCID mice (C.B.-17/IcrHan™Hsd-Prkdcscid) were obtained from Harlan Laboratories (Gannat, France). Animals were maintained in specific pathogen-free animal housing at the Center for Exploration and Experimental Functional Research (CERFE, Evry, France) animal facility. […] 72 hours post-infection, cells were selected with 2 μg/mL puromycin for 72 hours. At this point, the cells were maintained in fresh media for 2 days prior to injection into animals. Prior injection, cells were washed and resuspended in DMEM: 50% Matrigel (BD Pharmingen). 5×10^6 cells […] were injected to each mouse by subcutaneous route in the right flank (n=5 per group). Tumor volume was evaluated by measuring tumor diameters, with a calliper, three times a week during the follow-up period (23 days). The formula TV (mm^3)=[length (mm)×width (mm)2]/2 was used, where the length and the width are the longest and the shortest diameters of the tumor, respectively.
# [9] = tested on: SupT1, HPB-ALL, TALL1 and DND41; assay: Cell count proliferation assay of T-ALL cell lines; type: cell-based, human; details: shRNA knockdown
# Protocol: (§1) The following antibodies were used for flow cytometry: CD127-PE clone R34.34 and the IgG1-PE (from Beckman Coulter). Flow cytometry was performed on a BD FACSCalibur or MACSQUANT cytometer (Miltenyi). For cell proliferation assays, cells were plated at 2×10^5/mL in triplicate. Proliferation of shRNA-transduced T-ALL cells was followed by cell counting using the MACSQUANT cytometer (gated on live cells). Flow-cytometric cell cycle analysis was performed by staining DNA content of T-ALL cell lines using DAPI. SupT1 cells were also analyzed with EdU-DAPI staining to precisely define the percentage of cells at the G0/G1 phase. […] Cells were washed with PBS and fixed with PBS-4% PFA for 10 minutes at room temperature. After permeabilization, EdU incorporation was detected following the manufacturer's instructions (Click-iT, invitrogen) and total DNA content was measured using DAPI.
# T-ALL cell lines = assay: Flow-cytometric cell cycle analysis of T-ALL cell lines; type: cell-based, human; details: shRNA knockdown
# Protocol: as §1
compound,measurement,setting,value
"N[C@@H]1C[C@H]1c1ccccc1 (racemic) [TCP, tranylcypromine]",ICN1-induced activation of the Notch-responsive reporter (p6XCBS-luc),[1],impaired
same,"HES1, HEY1 and DTX1 expression",[2],increased
same,Notch-induced HES1 activation,[3],reduced HES1 activation
C[C@H](NC(=O)Cc1cc(F)cc(F)c1)C(=O)N[C@H]1N=C(c2ccccc2)c2ccccc2N(C)C1=O [GSI],RNAPII recruitment to Notch-target genes,[4],impaired
same,H3K27me2 mark at IL7R and DTX1 loci,[5]; SupT1,increase
same,CSL and LSD1 binding,"[5]; SupT1, ICN1-binding sites",did not significantly affect
same,ICN1 and MAML1 on chromatin,"[5]; SupT1, ICN1-binding sites",released
same,"recruitment of PBAF, PHF8 and AF4p12","[5]; SupT1, ICN1-binding sites",reduced
same,"MAML1 association with CSL, LSD1, PB1 and BRG1","[6]; SupT1, GSI 500 nM, 8 hours",severely altered
same,binding of PHF8 and AF4p12 to MAML1,"[6]; SupT1, GSI 500 nM, 8 hours",only marginally reduced
same,LSD1 binding to endogenous MAML1 and ICN1,[6]; SupT1 cells treated with DMSO or GSI,strongly reduced
NC1CC1c1cc(F)cc(F)c1OCc1ccccc1 (stereo not shown) [S2101],expression of Notch-responsive genes,[7],depression of Notch-responsive genes
same,expression of the control S14 gene,[7],not affected
same,"HES1, HEY1 and DTX1 expression",[2],increased
same,effect on monoamine oxidases,monoamine oxidases,much weaker effect
same,Notch-induced HES1 activation,[3],reduced HES1 activation
same,Notch-target genes expression on LSD1 inhibitor treatment,[8],dose-dependent repression
"PHF8 shRNA: shRNA targeting PHF8, SEQ ID NO: 1; pSUPER retroviral vector (GCTTCATGATCGAGTGTGACA)",tumor establishment,SupT1 xenograft tumor,did not establish tumors
same,proliferation,[9],marked reduction
same,cell-cycle progression in MOLT4 and H9,T-ALL cell lines; Notch-independent T-ALL cell lines,did not significantly affect
same,cell cycle in NOTCH1-dependent T-ALL cells,T-ALL cell lines,G0/G1 cell-cycle arrest
same,Notch-mediated expression of c-MYC,[8]; shRNA knockdown,suppressed
